Laboratory results from patent publication US6362207B1, “Methods of treating viral infections with benzimidazoles” (priority 1995, dated 2002).
Values joined by “and” are separate entries in the source; they are usually repeats but may differ in a detail not shown here. Equal entries are not always repeated. Where two headings read alike, the source gives them in different places.

Experiments:
[1] = tested on: MCF7 (breast cancer) cells; assay: Apoptosis study (TdT assay) and cell growth; assay type: cell-based, human
Procedure: Summary of test results: The extent of apoptosis is measured in human tumor cell lines after treatment for 1, 2, 3 and 4 days with carbendazim. At each of these time points, the cells are harvested and assayed using the terminal deoxynucleotidyl transferase (TdT) assays. Both microscopy and flow cytometry were used for the TdT assay.
In MCF7, HT29, B16 and SK-MES cell lines, there was a concentration dependent effect on cell growth. […] After completion of the studies on the MCF7 and HT29 cell lines, it was evident that the 0.1 μg/ml concentration had little effect on either apoptosis or cell growth. Therefore subsequent assays were with 5 μg/ml instead of 0.1 μg/ml.
However, at 10 μg/ml the increase in apoptosis was evident at days 3 and 4. The increase in apoptosis was low, less than 10% at the high concentration.

Prostate cancer model = assay: Prostate cancer model, tumor weight; assay type: in vivo, mice; details: c1-c6 = day 22, 26, 29, 33, 36, 39
MV522 = assay: Lung cancer model MV522 after Taxol, tumor weight; assay type: in vivo, mice
Procedure: The dose response effect of carbendazim in mice infected with various cancer types was studied in standard screening tests.
The results of these studies conducted to study the dosage response of carbendazim on various cancer types are summarized below. […] Efficacy of carbendazim has been shown in the following cancers:
At doses of 2000, 3000, 4000 and 5000 (mg/kg given twice weekly, p.o.) tumor growth was suppressed in a dose response and the tumor was shrunk in the 5000 mg/kg group. Day 1 is the start of the treatment with carbendazim.

P388 = assay: P-388 model for leukemia, T/C; assay type: in vivo, mice
Description: In the P-388 model for leukemia there was a dose responsive effect and the results were good.
The NCI Measure of Success is T/C=125.

[2] = assay type: in vivo
Description: Additional in vivo cancer studies are presented in a tabular form below. The data is presented in the following format—dose regimen in parenthesis, dosage in mg/kg: tumor growth suppression (tg supp.), toxic deaths/number of test subjects (deaths), % weight change (wt).

Oral LD50 = details: mouse, in vivo, mice
[3] = tested on: HIV-1 in U1 cells (promonocytic, from U937); assay: Additional chronic HIV studies, monocytes; assay type: cell-based; details: concentration not given
Procedure: Chronic HIV-1 infected cells U1 were derived from an acute HIV-1 infection of the promonocytic cell line, U937. The chronic HIV-1 infected cells, ACH-2 were derived from an acute HIV-1 infection of the T cell line, A3.01.
These cells were cultured in medium and the phorbol ester, PMA. PMA causes the cells (both U1 and ACH-2) to be activated and not divide but it also causes the U-1 cells to differentiate. […] Cell viability was measured when these cell lines were treated with the test compound.
Both cell lines constituitively produce a small amount of HIV-1. ACH-2 cell lines tend to produce more HIV-1 than U1 cells as shown by p24 ELISA. When either cell line is cultured in the presence of PMA there is an increase in the quantity of HIV-1 produced as measured by the p24 antigen ELISA.
In addition, the number of […] positive HIV mRNA expressing cells per microscopic field is measured. Comparisons can be made from these numbers since the same number of cells were adhered to the glass slides for each drug concentration 10×10^6 cells/ml).
These cells were treated with test samples. […] The positive control was interferon which suppressed HIV monocytes replication by 80%.

influenza = assay: In vitro influenza model; assay type: cell-based
herpes = assay: In vitro herpes model; assay type: cell-based
[4] = DU-145, 4000 mg/kg twice weekly
[5] = DU-145, 5000 mg/kg twice weekly
[6] = DU-145, 6000 mg/kg twice weekly
[7] = HT29 (colon), 2000 mg/kg twice weekly
[8] = HT29 (colon), 3000 mg/kg twice weekly
[9] = HT29 (colon), 4000 mg/kg twice weekly
[10] = HT29 (colon), 5000 mg/kg twice weekly
[11] = HT29 (colon), 6000 mg/kg twice weekly
[12] = MCF-7L (breast), 4000 mg/kg twice weekly
[13] = MCF-7L (breast), 5000 mg/kg twice weekly
[14] = MX1 xenograft, 4000 mg/kg twice weekly
[15] = MX1 xenograft, 5000 mg/kg twice weekly
[16] = MX1 xenograft, 6000 mg/kg twice weekly
[17] = SK-MES, 4000 mg/kg twice weekly
[18] = SK-MES, 5000 mg/kg twice weekly
[19] = SK-MES, 6000 mg/kg twice weekly

COC(=O)Nc1nc2ccccc2[nH]1 [carbendazim, 2-methoxycarbonylamino-benzimidazole]
increase in apoptosis ([1]; 10 μg/ml (high concentration), days 3 and 4): below 10% | cell growth ([1]; below 10 μg/ml): not significantly affected | tumor weight (Prostate cancer model; 4000 mg/kg p.o. twice a week): 330.5 mg and 347.9 mg and 346.6 mg and 421.1 mg and 464.9 mg and 517 mg | tumor weight (Prostate cancer model; 6000 mg/kg p.o. twice a week): 331.5 mg and 371.7 mg and 421.7 mg and 517.2 mg and 529.9 mg and 595.2 mg | tumor weight (MV522; 2000 mg/kg twice weekly p.o., c1-c3 = day 59, 63, 66, 2000 mg/kg, day 59): 214.9 mg | tumor weight (MV522; 2000 mg/kg twice weekly p.o., c1-c3 = day 59, 63, 66, 2000 mg/kg, day 63): 193.7 mg | tumor weight (MV522; 2000 mg/kg twice weekly p.o., c1-c3 = day 59, 63, 66, 2000 mg/kg, day 66): 188.9 mg | tumor weight (MV522; 3000 mg/kg twice weekly p.o., c1-c3 = day 59, 63, 66, 3000 mg/kg, day 59): 75.4 mg | tumor weight (MV522; 3000 mg/kg twice weekly p.o., c1-c3 = day 59, 63, 66, 3000 mg/kg, day 63): 77 mg | tumor weight (MV522; 3000 mg/kg twice weekly p.o., c1-c3 = day 59, 63, 66, 3000 mg/kg, day 66): 94.5 mg | T/C (P388; 500 mg/kg twice weekly): 141 | weight change (%) (P388; 500 mg/kg twice weekly): −0.64% | T/C (P388; 1000 mg/kg twice weekly): 176 | weight change (%) (P388; 1000 mg/kg twice weekly): −4.75% | T/C (P388; 1250 mg/kg twice weekly): 124 | weight change (%) (P388; 1250 mg/kg twice weekly): +1.99% | T/C (P388; 2000 mg/kg twice weekly): 169 | weight change (%) (P388; 2000 mg/kg twice weekly): −11.63% | T/C (P388; 2500 mg/kg twice weekly): 169 | weight change (%) (P388; 2500 mg/kg twice weekly): +3.16% | T/C (P388; 5000 mg/kg twice weekly): 198 | weight change (%) (P388; 5000 mg/kg twice weekly): −0.64% | Increased Life Span (P388; P388-luekemia, 1000 mg/kg): 129% | Increased Life Span (P388; P388-luekemia, 2000 mg/kg): 148% | decreased life span (P388; P388-luekemia, 4000 mg/kg, printed in column Increased Life Span): 9% | % weight change (wt) ([2]; A549 (lung), 500 mg/kg): +10% | toxic deaths/number of test subjects (deaths) ([2]; A549 (lung), 500 mg/kg): 0/10 | tumor growth suppression (tg supp.) ([2]; A549 (lung), 500 mg/kg): 57% | toxic deaths/number of test subjects (deaths) ([2]; A549 (lung), 2500 mg/kg): 10/10 | % weight change (wt) [2, 4]: −5% | toxic deaths/number of test subjects (deaths) [2, 4]: 0/10 | tumor growth suppression (tg supp.) [2, 4]: 52% | % weight change (wt) [2, 5]: −8% | toxic deaths/number of test subjects (deaths) [2, 5]: 1/10 | tumor growth suppression (tg supp.) [2, 5]: 48% | % weight change (wt) [2, 6]: −6% | toxic deaths/number of test subjects (deaths) [2, 6]: 1/10 | tumor growth suppression (tg supp.) [2, 6]: 33% | % weight change (wt) [2, 7]: +3% | toxic deaths/number of test subjects (deaths) [2, 7]: 0/10 | tumor growth suppression (tg supp.) [2, 7]: 36% | % weight change (wt) [2, 8]: −6% | toxic deaths/number of test subjects (deaths) [2, 8]: 2/10 | tumor growth suppression (tg supp.) [2, 8]: 65% | % weight change (wt) [2, 9]: −12% | toxic deaths/number of test subjects (deaths) [2, 9]: 3/10 | tumor growth suppression (tg supp.) [2, 9]: 78% | % weight change (wt) [2, 10]: −8% | toxic deaths/number of test subjects (deaths) [2, 10]: 2/10 | tumor growth suppression (tg supp.) [2, 10]: 79% | % weight change (wt) [2, 11]: −25% | toxic deaths/number of test subjects (deaths) [2, 11]: 9/10 | tumor growth suppression (tg supp.) [2, 11]: 97% | % weight change (wt) [2, 12]: −7% | toxic deaths/number of test subjects (deaths) [2, 12]: 5/10 | tumor growth suppression (tg supp.) [2, 12]: 94% | % weight change (wt) [2, 13]: −8% | toxic deaths/number of test subjects (deaths) [2, 13]: 7/10 | tumor growth suppression (tg supp.) [2, 13]: 100% | toxic deaths/number of test subjects (deaths) ([2]; MCF-7L (breast), 6000 mg/kg twice weekly): 10/10 | % weight change (wt) [2, 14]: −1% | toxic deaths/number of test subjects (deaths) [2, 14]: 0/10 | tumor growth suppression (tg supp.) [2, 14]: 48% | % weight change (wt) [2, 15]: −4% | toxic deaths/number of test subjects (deaths) [2, 15]: 1/10 | tumor growth suppression (tg supp.) [2, 15]: 63% | % weight change (wt) [2, 16]: −4% | toxic deaths/number of test subjects (deaths) [2, 16]: 1/9 | tumor growth suppression (tg supp.) [2, 16]: 70% | % weight change (wt) [2, 17]: +3% | toxic deaths/number of test subjects (deaths) [2, 17]: 2/10 | tumor growth suppression (tg supp.) [2, 17]: 45% | % weight change (wt) [2, 18]: +2% | toxic deaths/number of test subjects (deaths) [2, 18]: 1/10 | tumor growth suppression (tg supp.) [2, 18]: 44% | % weight change (wt) [2, 19]: −2% | toxic deaths/number of test subjects (deaths) [2, 19]: 3/10 | tumor growth suppression (tg supp.) [2, 19]: 69% | LD50 (Oral LD50): 11000 mg/kg | suppression of replication in the HIV monocytes [3]: 9% | activity (influenza): no activity | activity (herpes): no activity
